In patent publication US20220125959A1, “PROSTATE-SPECIFIC MEMBRANE ANTIGEN (PSMA) INHIBITORS AS DIAGNOSTIC AND RADIONUCLIDE THERAPEUTIC AGENTS” (FIVE ELEVEN PHARMA INC., priority 2019, published 2022):

What was measured:
[1] = system: PC3-PIP (PSMA positive) and PC-3 tumors (PSMA negative); test: Biodistribution of 177Lu labeled compounds 42 and 51 in tumor bearing nude mice; format: in vivo, CD-1 male nude mice
Method: For iv injection 150 μL of labeled solution was diluted with saline to 3.75mL. Mice were injected with 150 μL of formulated dose. Injected radioactivity was 100 μCi and PSMA ligand amount was constant at 0.72 nmole/mouse.
Similarly, the tissue distribution of [^177Lu]42 and [^177Lu]51 was evaluated in mice bearing PIP PC3 (PSMA positive) and PC3 (PSMA negative) tumors on the left and right shoulder, respectively, over a period of 24 h (Table 4). […] The tumor specific uptake for [^177Lu]51 was higher than that observed for [^177Lu]42. […] Results of this study lend support for using these dual-targeted ^177Lu labeled agents for treatment of metastatic prostate cancer.

[2] = system: PSMA-positive cell line, PIP PC3; test: In vitro cell uptake, PIP PC3 cells; format: cell-based
Procedure, shortened: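 Cellular uptake of [^177Lu]-labelled ligands was measured in PIP PC3 cells seeded at 5×10^5 cells/well in 12-well plates and grown 48 h in 1 mL medium. After two PBS washes and addition of 900 μL fresh medium, triplicate wells were incubated at 37° C. Cells were then washed twice, lysed in 1 mL of 0.5 M NaOH, and gamma-counted, with uptake expressed as % ID.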

[3] = system: PSMA-negative cell line, PC3; test: In vitro cell uptake, PC3 cells; format: cell-based; details: PC3 (do not express PSMA), 60 min
Procedure, shortened: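 Cells grown 48 h, washed, then incubated at 37 °C with [^177Lu]-labelled ligand; nonspecific binding defined with 10 μM 2-PMPA. After washing and lysis in 0.5 M NaOH, activity counted in a gamma counter; uptake expressed as % ID, triplicates.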

[4] = Stability of injected doses after formulation; format: physicochemical; details: at 24 hr after formulation
Procedure, shortened: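 Ligand labeled with ^68Ga (90° C, 10 min) or ^177Lu (95° C, 1 hour) in NaOAc; radiochemical purity checked by radio-HPLC, with stability of formulated doses followed to 2 hr (^68Ga) or 48 hr (^177Lu). Mice received iv 100 μCi, 0.72 nmole ligand/mouse.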

[5] = PIP PC3, 60 min, with PSMA inhibitor (2-PMPA, 2 uM)

O=C(O)CC[C@H](NC(=O)N[C@@H](CCCCNC(=O)[C@H](Cc1ccccc1)NC(=O)COc1ccc(C[C@H](NC(=O)CNC(=O)CCC(C(=O)O)N2CCN(CC(=O)O)CCN(CC(=O)O)CCN(CC(=O)O)CC2)C(=O)NCC(=O)NC(P(=O)(O)O)P(=O)(O)O)cc1)C(=O)O)C(=O)O.[177Lu] (stereo partly shown) [[^177Lu]51]
Biodistribution: Blood ([1]; 1 hr): 0.18 ± 0.04 % dose/g
Biodistribution: Bone ([1]; 1 hr): 6.52 ± 0.34 % dose/g
Biodistribution: Heart ([1]; 1 hr): 0.20 ± 0.06 % dose/g
Biodistribution: Kidney ([1]; 1 hr): 90.59 ± 18.47 % dose/g
Biodistribution: Lg Intestine ([1]; 1 hr): 0.10 ± 0.04 % dose/g
Biodistribution: Liver ([1]; 1 hr): 0.23 ± 0.03 % dose/g
Biodistribution: Lung ([1]; 1 hr): 0.62 ± 0.09 % dose/g
Biodistribution: Muscle ([1]; 1 hr): 0.11 ± 0.03 % dose/g
Biodistribution: PC3 tumor ([1]; 1 hr): 0.53 ± 0.12 % dose/g
Biodistribution: PIP PC3 tumor ([1]; 1 hr): 14.70 ± 1.29 % dose/g
Biodistribution: Pancreas ([1]; 1 hr): 0.37 ± 0.11 % dose/g
Biodistribution: Skin ([1]; 1 hr): 0.35 ± 0.05 % dose/g
Biodistribution: Sm Intestine ([1]; 1 hr): 0.16 ± 0.03 % dose/g
Biodistribution: Spleen ([1]; 1 hr): 1.33 ± 0.41 % dose/g
Biodistribution: Stomach ([1]; 1 hr): 0.11 ± 0.03 % dose/g
Biodistribution: Blood ([1]; 4 hr): 0.03 ± 0.01 % dose/g
Biodistribution: Bone ([1]; 4 hr): 6.74 ± 0.71 % dose/g
Biodistribution: Heart ([1]; 4 hr): 0.05 ± 0.00 % dose/g
Biodistribution: Kidney ([1]; 4 hr): 35.24 ± 5.28 % dose/g
Biodistribution: Lg Intestine ([1]; 4 hr): 0.22 ± 0.15 % dose/g
Biodistribution: Liver ([1]; 4 hr): 0.16 ± 0.00 % dose/g
Biodistribution: Lung ([1]; 4 hr): 0.20 ± 0.06 % dose/g
Biodistribution: Muscle ([1]; 4 hr): 0.03 ± 0.00 % dose/g
Biodistribution: PC3 tumor ([1]; 4 hr): 0.20 ± 0.03 % dose/g
Biodistribution: PIP PC3 tumor ([1]; 4 hr): 15.12 ± 1.36 % dose/g
Biodistribution: Pancreas ([1]; 4 hr): 0.11 ± 0.03 % dose/g
Biodistribution: Skin ([1]; 4 hr): 0.11 ± 0.01 % dose/g
Biodistribution: Sm Intestine ([1]; 4 hr): 0.21 ± 0.29 % dose/g
Biodistribution: Spleen ([1]; 4 hr): 0.39 ± 0.12 % dose/g
Biodistribution: Stomach ([1]; 4 hr): 0.26 ± 0.23 % dose/g
Biodistribution: Blood ([1]; 24 hr): 0.00 ± 0.00 % dose/g
Biodistribution: Bone ([1]; 24 hr): 5.51 ± 0.66 % dose/g
Biodistribution: Heart ([1]; 24 hr): 0.03 ± 0.01 % dose/g
Biodistribution: Kidney ([1]; 24 hr): 4.18 ± 1.74 % dose/g
Biodistribution: Lg Intestine ([1]; 24 hr): 0.49 ± 0.34 % dose/g
Biodistribution: Liver ([1]; 24 hr): 0.14 ± 0.02 % dose/g
Biodistribution: Lung ([1]; 24 hr): 0.10 ± 0.04 % dose/g
Biodistribution: Muscle ([1]; 24 hr): 0.02 ± 0.00 % dose/g
Biodistribution: PC3 tumor ([1]; 24 hr): 0.16 ± 0.02 % dose/g
Biodistribution: PIP PC3 tumor ([1]; 24 hr): 10.75 ± 2.52 % dose/g
Biodistribution: Pancreas ([1]; 24 hr): 0.03 ± 0.00 % dose/g
Biodistribution: Skin ([1]; 24 hr): 0.07 ± 0.02 % dose/g
Biodistribution: Sm Intestine ([1]; 24 hr): 0.30 ± 0.33 % dose/g
Biodistribution: Spleen ([1]; 24 hr): 0.15 ± 0.04 % dose/g
Biodistribution: Stomach ([1]; 24 hr): 0.40 ± 0.56 % dose/g
Bone uptake compared with [177Lu]42 ([1]; mouse, in vivo): consistently higher
PC3 (PSMA negative) tumor uptake ([1]; mouse, in vivo): very low uptake
PIP PC3 (PSMA positive) tumor uptake ([1]; mouse, in vivo): excellent
Tumor specific uptake compared with [177Lu]42 ([1]; mouse, in vivo): higher
Uptake in bone ([1]; mouse, in vivo): high specific uptake in bone
Uptakes compared with reference ligand [177Lu]PSMA-617 ([2]; PIP PC3): much higher uptakes
In vitro cell uptake ([2]; PIP PC3, 5 min): 4.4 % ID per 5 × 10^5 cells
In vitro cell uptake ([2]; PIP PC3, 15 min): 8.4 % ID per 5 × 10^5 cells
In vitro cell uptake ([2]; PIP PC3, 30 min): 13.4 % ID per 5 × 10^5 cells
In vitro cell uptake ([2]; PIP PC3, 60 min): 17.4 % ID per 5 × 10^5 cells
In vitro cell uptake [2, 5]: 1.1 % ID per 5 × 10^5 cells
In vitro cell uptake ([2]; PIP PC3, 120 min): 19.3 % ID per 5 × 10^5 cells
In vitro cell uptake [3]: 0.7 % ID per 5 × 10^5 cells
Stability of injected doses [4]: stable

O=C([O-])CN1CCN(C(CCC(=O)NCC(=O)NC(Cc2ccc(OCC(=O)NC(Cc3ccccc3)C(=O)NCCCCC(NC(=O)NC(CCC(=O)O)C(=O)O)C(=O)O)cc2)C(=O)O)C(=O)[O-])CCN(CC(=O)[O-])CCN(C(CCC(=O)NCC(=O)NC(P(=O)(O)O)P(=O)(O)O)C(=O)O)CC1.[177Lu+3] (stereo not shown) [[^177Lu]42]
Biodistribution: Blood ([1]; 1 hr): 0.18 ± 0.05 % dose/g
Biodistribution: Bone ([1]; 1 hr): 5.82 ± 1.59 % dose/g
Biodistribution: Heart ([1]; 1 hr): 0.13 ± 0.03 % dose/g
Biodistribution: Kidney ([1]; 1 hr): 27.52 ± 7.47 % dose/g
Biodistribution: Lg Intestine ([1]; 1 hr): 0.11 ± 0.03 % dose/g
Biodistribution: Liver ([1]; 1 hr): 0.12 ± 0.02 % dose/g
Biodistribution: Lung ([1]; 1 hr): 0.38 ± 0.11 % dose/g
Biodistribution: Muscle ([1]; 1 hr): 0.08 ± 0.02 % dose/g
Biodistribution: PC3 tumor ([1]; 1 hr): 0.41 ± 0.10 % dose/g
Biodistribution: PIP PC3 tumor ([1]; 1 hr): 11.29 ± 2.44 % dose/g
Biodistribution: Pancreas ([1]; 1 hr): 0.20 ± 0.09 % dose/g
Biodistribution: Skin ([1]; 1 hr): 0.22 ± 0.05 % dose/g
Biodistribution: Sm Intestine ([1]; 1 hr): 0.24 ± 0.15 % dose/g
Biodistribution: Spleen ([1]; 1 hr): 0.53 ± 0.17 % dose/g
Biodistribution: Stomach ([1]; 1 hr): 0.17 ± 0.07 % dose/g
Biodistribution: Blood ([1]; 4 hr): 0.02 ± 0.01 % dose/g
Biodistribution: Bone ([1]; 4 hr): 5.62 ± 1.18 % dose/g
Biodistribution: Heart ([1]; 4 hr): 0.06 ± 0.02 % dose/g
Biodistribution: Kidney ([1]; 4 hr): 11.81 ± 5.81 % dose/g
Biodistribution: Lg Intestine ([1]; 4 hr): 1.03 ± 1.01 % dose/g
Biodistribution: Liver ([1]; 4 hr): 0.08 ± 0.02 % dose/g
Biodistribution: Lung ([1]; 4 hr): 0.13 ± 0.04 % dose/g
Biodistribution: Muscle ([1]; 4 hr): 0.05 ± 0.04 % dose/g
Biodistribution: PC3 tumor ([1]; 4 hr): 0.28 ± 0.11 % dose/g
Biodistribution: PIP PC3 tumor ([1]; 4 hr): 7.62 ± 1.60 % dose/g
Biodistribution: Pancreas ([1]; 4 hr): 0.05 ± 0.02 % dose/g
Biodistribution: Skin ([1]; 4 hr): 0.10 ± 0.03 % dose/g
Biodistribution: Sm Intestine ([1]; 4 hr): 0.94 ± 1.12 % dose/g
Biodistribution: Spleen ([1]; 4 hr): 0.18 ± 0.06 % dose/g
Biodistribution: Stomach ([1]; 4 hr): 0.49 ± 0.60 % dose/g
Biodistribution: Blood ([1]; 24 hr): 0.00 ± 0.00 % dose/g
Biodistribution: Bone ([1]; 24 hr): 4.55 ± 0.26 % dose/g
Biodistribution: Heart ([1]; 24 hr): 0.03 ± 0.01 % dose/g
Biodistribution: Kidney ([1]; 24 hr): 2.62 ± 0.19 % dose/g
Biodistribution: Lg Intestine ([1]; 24 hr): 0.37 ± 0.20 % dose/g
Biodistribution: Liver ([1]; 24 hr): 0.06 ± 0.00 % dose/g
Biodistribution: Lung ([1]; 24 hr): 0.04 ± 0.01 % dose/g
Biodistribution: Muscle ([1]; 24 hr): 0.03 ± 0.02 % dose/g
Biodistribution: PC3 tumor ([1]; 24 hr): 0.11 ± 0.04 % dose/g
Biodistribution: PIP PC3 tumor ([1]; 24 hr): 4.72 ± 1.68 % dose/g
Biodistribution: Pancreas ([1]; 24 hr): 0.01 ± 0.00 % dose/g
Biodistribution: Skin ([1]; 24 hr): 0.05 ± 0.01 % dose/g
Biodistribution: Sm Intestine ([1]; 24 hr): 0.06 ± 0.05 % dose/g
Biodistribution: Spleen ([1]; 24 hr): 0.04 ± 0.01 % dose/g
Biodistribution: Stomach ([1]; 24 hr): 0.14 ± 0.10 % dose/g
PC3 (PSMA negative) tumor uptake ([1]; mouse, in vivo): very low uptake
PIP PC3 (PSMA positive) tumor uptake ([1]; mouse, in vivo): excellent
Uptake in bone ([1]; mouse, in vivo): high specific uptake in bone
In vitro cell uptake ([2]; PIP PC3, 5 min): 3.3 % ID per 5 × 10^5 cells
In vitro cell uptake ([2]; PIP PC3, 15 min): 5.5 % ID per 5 × 10^5 cells
In vitro cell uptake ([2]; PIP PC3, 30 min): 7.6 % ID per 5 × 10^5 cells
In vitro cell uptake ([2]; PIP PC3, 60 min): 8.6 % ID per 5 × 10^5 cells
In vitro cell uptake [2, 5]: 0.9 % ID per 5 × 10^5 cells
In vitro cell uptake ([2]; PIP PC3, 120 min): 9.8 % ID per 5 × 10^5 cells
In vitro cell uptake [3]: 0.8 % ID per 5 × 10^5 cells
Stability of injected doses [4]: stable
